Values after ≈ are worked out from the molar mass of the structure shown. Read-outs that look alike come from different tables or passages of the source.
How the values were obtained:
[1] = system: M. abscessus ATCC 19977; test: MIC, resazurin microtiter assay; format: cell-based; conditions: Mycobacteroides abscessus, ATCC19977; Mueller Hinton II; read-out: MIC M. abscessus ATCC 19977
[2] = system: M. abscessus DCI #21; test: MIC, resazurin microtiter assay; format: cell-based; conditions: Mycobacteroides abscessus; Mueller Hinton II; read-out: MIC M. abscessus DCI #21
[3] = system: M. massiliense CIP 108297; test: MIC, resazurin microtiter assay; format: cell-based; conditions: Mycobacteroides abscessus, CIP108297, Mueller Hinton II; read-out: MIC M. massiliense CIP 108297
[4] = system: M. massiliense CRM 0019; test: MIC, resazurin microtiter assay; format: cell-based; conditions: Mycobacteroides abscessus, CRM0019, Mueller Hinton II; read-out: MIC M. massiliense CRM 0019
[5] = system: M. bolletii ATCC 14472; test: MIC, resazurin microtiter assay; format: cell-based; conditions: Mycobacteroides abscessus, ATCC14472, Mueller Hinton II; read-out: MIC M. bolletii ATCC 14472
[6] = system: M. chelonae ATCC 35752; test: MIC, resazurin microtiter assay; format: cell-based; conditions: Mycobacteroides chelonae, ATCC35752, Mueller Hinton II; read-out: MIC M. chelonae ATCC 35752
[7] = system: M. tuberculosis H37Rv mc^26206; test: microbe, parasite or virus in culture; format: cell-based; conditions: TD50 in THP-1 cells
[8] = system: M. smegmatis mc^2155; test: MIC, resazurin microtiter assay; format: cell-based; conditions: Mycolicibacterium smegmatis, MC^2155, 7H9-ADC-0.05% Tween 80; read-out: MIC M. smeg. mc^2155
[9] = system: M. intracellulare 1956; test: MIC, resazurin microtiter assay; format: cell-based; conditions: Mueller Hinton II; read-out: MIC M. avium Intracellulare 1956
[10] = system: M. xenopi WT; test: MIC, resazurin microtiter assay; format: cell-based; conditions: Mycobacterium xenopi, Mueller Hinton II; read-out: MIC M. xenopi WT
[11] = system: P. aeruginosa PAO-1; test: MIC, resazurin microtiter assay; format: cell-based, Pseudomonas aeruginosa; conditions: Mueller Hinton II
[12] = system: S. aureus ATCC25923; test: MIC, resazurin microtiter assay; format: cell-based; conditions: Staphylococcus aureus, ATCC25923; Mueller Hinton II; read-out: MIC S. aureus ATCC25923
[13] = system: mycobacteria; test: organism not typed; format: cell-based; conditions: lowest concentration reducing CFU by 90% relative to the inoculum; strain not stated; read-out: MBC90
[14] = system: THP-1 cells; test: Cytotoxicity assay, THP-1 cell viability (CellTiter-Glo); format: cell-based, human; conditions: 3 days
Experimental: The cytotoxicity of compounds was determined by measuring THP-1 cell viability after 3 days in the presence of test compounds. Compounds were prepared as 10-point serial dilutions in DMSO. The highest concentration of compound tested was 50 μM where compounds were soluble in DMSO at 10 mM. THP-1 cells were cultured in complete RPMI and differentiated into macrophage-like cells using 80 nM PMA overnight at 37° C., 5% CO2. Cells were inoculated into assay plates and cultured for 24 h before compound dilutions were added to a final DMSO concentration of 0.5%. Each run included staurosporine as a control. Assay plates were incubated for 3 days at 37° C., 5% CO2, growth was measured using the CellTiter-Glo® Luminescent Cell Viability Assay (Promega) which uses ATP as an indicator of cell viability. Relative luminescent units (RLU) were measured using a Biotek Synergy 4 plate reader. The dose response curve was fitted using the Levenberg-Marquardt algorithm.

[15] = system: M. abscessus 103; test: MIC/MBC by microbroth dilution (MH or 7H9 broth); format: cell-based, M. abscessus subsp. bolletii; conditions: Mycobacteroides abscessus, 103
[16] = system: M. abscessus 1513; test: MIC/MBC by microbroth dilution (MH or 7H9 broth); format: cell-based, M. abscessus subsp. abscessus; conditions: Mycobacteroides abscessus, 1513
[17] = In vivo acute toxicity assay (Maximum Tolerated Dose); set-up: species or system Balb/C mice; conditions: 100, 200 and 300 mg/kg for 3 consecutive days of dosing, gavage, mice
Experimental: 6-8 week old Balb/C female mice were ordered from Charles River. Mice were rested one to two weeks before dosing. For each dose of compound, 3 mice were utilized. […] Compound was given twice per day for 3 consecutive days by gavage, at 100 μl/mouse. Compounds were prepared the day before or the day of dosing and stored at 4° C. until dosing. The time of dosing was recorded for each mouse. Observations were recorded immediately, at 10 min, 1 hour, 2 hours, 4 hours, and 24 hours after dosing. […] Mice were dosed for three days and on the fourth day mice were observed twice daily for two days, then once daily for five days.
As an initial in vivo study, the safety of compounds and preliminary pharmacokinetics was assessed in an acute toxicity mouse model (Maximum Tolerated Dose assay, MTD) to evaluate any potential adverse effects and determine a safe dose for mouse efficacy studies. Compounds were tested to ensure safe use in healthy mice prior to any further in vivo testing. […] Novel compounds were generally administered to mice at 40, 75 and 100 mg/kg in a tested formulation, administered on three consecutive days, 3 mice per dose group, in the chosen formulation. […] Mice were observed 10 min, 1, 2, 4 hours after dosing and then daily afterwards. During the observations, humane handling practices and animal welfare regulations were strictly followed. […]

[18] = Dose response pharmacokinetics, plasma concentration by LC-MS/MS; format: in vivo, BALB/c mice; conditions: single oral dose 100 and 200 mg kg^-1, 2 and 4 h, mice
Experimental: P.O. dosing at 100, 200 and 300 mg kg^−1 was administered; after administration, blood was collected at 2 and 4 hour time points for quantification. Plasma concentration of the compounds 5 and 25 was determined using liquid chromatography tandem mass spectrometry. Data are presented as mean±SD.
Female BALB/c mice were given a dose of compounds 5 or 25 at 100, 200 and 300 mg kg′ by oral gavage in a volume of 0.2 mL. At 2 and 4 hours after compound administration, animals were euthanized and cardiac blood (approximately 0.7 mL) was collected. Plasma was separated using centrifugation at 12,000 g for 20 min at 4° C. and stored at […]. Concentrations of compounds 5 and 25 in plasma were analyzed with LC-tandem MS (LC-MS/MS, AB SCIEX QTRAP 5500 system) with warfarin as internal standard. MS detection of mass transitions 295.2/135.2 (Compound 5), 299.2/146.1 (Compound 25) and 309.1/163.0 (Warfarin) was carried out. Concentration calculation was performed with MultiQuant Software (Version 2.1, AB SCIEX). The pharmacokinetic profile of the test compound was analyzed from plasma concentration-time data after oral administration.

[19] = system: panel of mycobacteria; test: MIC against a panel of mycobacteria (summary ranges); format: cell-based; conditions: M. avium and M. xenopi strains of Table 3
[20] = system: M. abscessus 103; conditions: mouse, in vivo, 300 mg/kg
[21] = system: M. abscessus 103; test: Acute SCID mouse infection efficacy model; conditions: SCID mice i.v. infected with M. abscessus 103; compounds 300 mg/kg PO in 20% cyclodextrin, AMI 150 mg/kg SQ, once daily 8 days
[22] = system: M. massiliense strain 1513; test: Metabolic labeling and mycolic acid analysis; conditions: 4x and 10x MIC, 16 hr, [1,2-14C]acetate labeling, TLC
Experimental: Cultures of M. massiliense 1513 grown to mid log-phase in Mueller-Hinton II broth were incubated with different concentrations of inhibitors for 16 hr at 37° C. with shaking. 0.5 μCi/mL [1,2-^14C]acetic acid (specific activity, 52 Ci/mol, PerkinElmer Inc.) was added at the same time as the inhibitors. Total lipids and cell wall-bound mycolic acid methyl esters were prepared from treated and untreated cells and analyzed by TLC as described in Grzegorzewicz et al, Nature Chemical Biology, 2012, 8:334+341.

Structure (SMILES): Cc1cc(C)c2cc(C(=O)NC3CCCCCCC3)[nH]c2c1 [Compound 25, N-cyclooctyl-4,6-dimethyl-1H-indole-2-carboxamide]
- MIC [1]: 0.063 µg/mL (≈ 0.211 µM)
- MIC [2]: 0.0078 µg/mL (≈ 0.0261 µM)
- MIC [3]: 0.031 µg/mL (≈ 0.104 µM)
- MIC [4]: 0.0078 µg/mL (≈ 0.0261 µM)
- MIC [5]: 0.0039 µg/mL (≈ 0.0131 µM)
- MIC [6]: 0.063 µg/mL (≈ 0.211 µM)
- Selectivity Index (TD50/MIC) M. tb H37Rv [7]: >764
- MIC [8]: 0.313 to 0.625 µg/mL (≈ 1.05 to 2.09 µM)
- MIC [9]: 1 µg/mL (≈ 3.35 µM)
- MIC [10]: 0.25 µg/mL (≈ 0.838 µM)
- MIC P. aeruginosa PAO-1 [11]: inactive
- MIC ([11]; Pseudomonas aeruginosa, PAO1, read-out: MIC P. aeruginosa PAO-1): > 160 µg/mL
- MIC [12]: > 160 µg/mL
- MBC [13]: 0.015 µg/mL (≈ 0.0503 µM)
- TD50 [14]: >14.9 µg/mL
- MBC ([15]; MH broth, read-out: MBC99 M. abscessus subsp. bolletii 103): 64 µg/mL (≈ 214 µM)
- MIC ([15]; read-out: MIC M. abscessus 103, 7H9 Broth): > 64 µg/mL
- MIC ([15]; read-out: MIC M. abscessus 103, MH Broth): 16 µg/mL (≈ 53.6 µM)
- MBC ([16]; MH broth, read-out: MBC99 M. abscessus subsp. abscessus 1513): 64 µg/mL (≈ 214 µM)
- MIC ([16]; read-out: MIC M. abscessus 1513, 7H9 Broth): > 64 µg/mL
- MIC ([16]; read-out: MIC M. abscessus 1513, MH Broth): 16 µg/mL (≈ 53.6 µM)
- Tolerability (acute toxicity, MTD) [17]: well tolerated
- Blood concentration compared to compound 5 [18]: lower blood concentration
- MIC range in MAC panel [19]: 0.25 to 1 µg/mL
- Survival until the Day 12 endpoint [20]: all animals survived
- Weight loss [20]: didn't demonstrate any significant weight loss
- log10 CFU liver counts on day 12 [21]: 4.90±0.49 log10 CFU
- log10 CFU spleen counts on day 12 [21]: 2.91±0.45 log10 CFU
- TMM build-up and mycolic acid transfer onto arabinogalactan and TDM [22]: concentration-dependent build-up of TMM
